Test system: HCV 1b genotype
Experiment: HCV Replicon assay (HCV-neo replicon cells), 1b genotype
Type: cell-based
Settings: Hepatitis C virus; HCV 1b genotype replicon; numeric value; read-out: 1b EC50 (in μM or range)
Description: An HCV Replicon assay was utilized in the present disclosure, and was prepared, conducted and validated as described in commonly owned PCT/US2006/022197 and in O'Boyle et al., Antimicrob. Agents Chemother., 49(4):1346-1353 (April 2005). Assay methods incorporating luciferase reporters have also been used as described (Apath.com).
HCV-neo replicon cells and replicon cells containing mutations in the NS5A region were used to test the currently described family of compounds. The compounds were determined to have more than 10-fold less inhibitory activity on cells containing mutations than wild-type cells. Thus, the compounds of the present disclosure can be effective in inhibiting the function of the HCV NS5A protein and are understood to be as effective in combinations as previously described in application PCT/US2006/022197 and commonly owned WO 04/014852. Further, the compounds of the present disclosure can be effective against the HCV 1b genotype. It should also be understood that the compounds of the present disclosure can inhibit multiple genotypes of HCV. […] In one embodiment compounds of the present disclosure are inhibitory versus 1a, 1b, 2a, 2b, 3a, 4a, and 5a genotypes. […] The compounds of the present disclosure may inhibit HCV by mechanisms in addition to or other than NS5A inhibition. In one embodiment the compounds of the present disclosure inhibit HCV replicon and in another embodiment the compounds of the present disclosure inhibit NS5A.

Q: `COC(=O)N[C@@H](C)C(=O)N1CCC[C@H]1c1nc(CCc2ccc(CCc3cnc([C@@H]4CCCN4C(=O)[C@H](C)NC(=O)OC)[nH]3)cc2)c[nH]1` [Example 42, methyl ((1S)-2-((2S)-2-(4-(2-(4-(2-(2-((2S)-1-(N-(methoxycarbonyl)-L-alanyl)-2-pyrrolidinyl)-1H-imidazol-4-yl)ethyl)phenyl)ethyl)-1H-imidazol-2-yl)-1-pyrrolidinyl)-1-methyl-2-oxoethyl)carbamate] was tested. Which EC50 did it give?
A: The EC50 was 0.274 µM.

Same assay, conditions: Hepatitis C virus; HCV 1b genotype replicon; value given as range class; read-out: 1b EC50 (in μM or range)

Q: How did the EC50 turn out when `COC(=O)N[C@@H](C)C(=O)N1CCC[C@H]1c1nc(/C=C/c2ccc(/C=C/c3cnc([C@@H]4CCCN4C(=O)[C@H](C)NC(=O)OC)[nH]3)cc2)c[nH]1` [Example 37, methyl ((1S)-2-((2S)-2-(4-((E)-2-(4-((E)-2-(2-((2S)-1-(N-(methoxycarbonyl)-L-alanyl)-2-pyrrolidinyl)-1H-imidazol-4-yl)vinyl)phenyl)vinyl)-1H-imidazol-2-yl)-1-pyrrolidinyl)-1-methyl-2-oxoethyl)carbamate] was run?
A: Its EC50 is less than 0.001 µM.

Q: `COC(=O)N[C@H](C(=O)N1CCC[C@H]1c1nc(/C=C/c2ccc(/C=C/c3cnc([C@@H]4CCCN4C(=O)[C@@H](NC(=O)OC)C(C)C)[nH]3)cc2)c[nH]1)C(C)C` [Example 38, methyl ((1S)-1-(((2S)-2-(4-((E)-2-(4-((E)-2-(2-((2S)-1-((2S)-2-((methoxycarbonyl)amino)-3-methylbutanoyl)-2-pyrrolidinyl)-1H-imidazol-4-yl)vinyl)phenyl)vinyl)-1H-imidazol-2-yl)-1-pyrrolidinyl)carbonyl)-2-methylpropyl)carbamate] was tested. Which EC50 did it give?
A: The EC50 was less than 0.001 µM.

Q: How did the EC50 turn out when `COC(=O)N[C@H](C(=O)N1CCC[C@H]1c1nc(/C=C/c2ccc(/C=C/c3cnc([C@@H]4CCCN4C(=O)[C@@H](NC(=O)OC)[C@@H](C)OC)[nH]3)cc2)c[nH]1)[C@@H](C)OC` [Example 39, methyl ((1S,2R)-2-methoxy-1-(((2S)-2-(4-((E)-2-(4-((E)-2-(2-((2S)-1-(N-(methoxycarbonyl)-O-methyl-L-threonyl)-2-pyrrolidinyl)-1H-imidazol-4-yl)vinyl)phenyl)vinyl)-1H-imidazol-2-yl)-1-pyrrolidinyl)carbonyl)propyl)carbamate] was run?
A: The EC50 was less than 0.001 µM.

Q: `CCN(CC)[C@@H](C(=O)N1CCC[C@H]1c1nc(CCc2ccc(CCc3cnc([C@@H]4CCCN4C(=O)[C@@H](c4ccccc4)N(CC)CC)[nH]3)cc2)c[nH]1)c1ccccc1` [Example 40, (1R)-2-((2S)-2-(4-(2-(4-(2-(2-((2S)-1-((2R)-2-(diethylamino)-2-phenylacetyl)-2-pyrrolidinyl)-1H-imidazol-5-yl)ethyl)phenyl)ethyl)-1H-imidazol-2-yl)-1-pyrrolidinyl)-N,N-diethyl-2-oxo-1-phenylethanamine] was tested. Which EC50 did it give?
A: The EC50 was less than 0.001 µM.

Q: `COC(=O)N[C@@H](C(=O)N1CCC[C@H]1c1nc(CCc2ccc(CCc3cnc([C@@H]4CCCN4C(=O)[C@H](NC(=O)OC)c4ccccc4)[nH]3)cc2)c[nH]1)c1ccccc1` [Example 41, dimethyl (1,4-phenylenebis(2,1-ethanediyl-1H-imidazole-4,2-diyl(2S)-2,1-pyrrolidinediyl((1R)-2-oxo-1-phenyl-2,1-ethanediyl)))biscarbamate] was tested. Which EC50 did it give?
A: The EC50 was less than 0.001 µM.

Q: How did the EC50 turn out when `COC(=O)N[C@H](C(=O)N1CCC[C@H]1c1nc(CCc2ccc(CCc3cnc([C@@H]4CCCN4C(=O)[C@@H](NC(=O)OC)C(C)C)[nH]3)cc2)c[nH]1)C(C)C` [Example 43, methyl ((1S)-1-(((2S)-2-(4-(2-(4-(2-(2-((2S)-1-((2S)-2-((methoxycarbonyl)amino)-3-methylbutanoyl)-2-pyrrolidinyl)-1H-imidazol-4-yl)ethyl)phenyl)ethyl)-1H-imidazol-2-yl)-1-pyrrolidinyl)carbonyl)-2-methylpropyl)carbamate] was run?
A: Its EC50 is 0.001 to 0.01 µM.
